Where two headings read alike, the source gives them in different places.
How the values were obtained:
[1] = system: IRF9 and STAT1 mRNA; test: IFN-responsive gene expression in HCT-116 and Colo-205 cells (qRT-PCR); format: cell-based; settings: HCT-116 and Colo-205, 0.5 μM, IFNg treated cells, at least one early (0-3 h) and late (24 h-48 h) time point
Method: Figure 3 SEL120-34A inhibits interferon- induced genes expression in a dose dependent manner (A) HCT-116 and Colo-205 cells were made quiescent overnight by decreasing FBS in medium to 0.5% and then preincubated with 0.5 μM SEL120-34A for 1 h followed by either IFNg (5 ng/mL) or IFNa (250 units/mL) stimulation in the presence of SEL120-34A. At the indicated time point, cells were harvested, RNA extracted and transcripts levels analyzed by the qRT-PCR reaction. The results were normalized for RPLP0 mRNA (means ±S.D., n=3). (B) Colo-205 cells were synchronized as in panel A and then challenged with increasing doses of SEL120-34A for 1 h followed by either 3 h IFNg ([…]) or 48 h IFNa (250 units/ml) stimulation. At this time RNA was extracted, DNAse I digested and subjected to the qRT-PCR reaction. […] Differences between mRNA levels for control and SEL120-34A at the indicated time points were assessed by t-tests. […]
[…]

[2] = biological target: CDK5/p35NCK (Homo sapiens, UniProt Q00535); test: CDK family single point inhibition assay; format: biochemical; settings: Km ATP
Chain of CDK5/p35NCK (Q00535 whole entry): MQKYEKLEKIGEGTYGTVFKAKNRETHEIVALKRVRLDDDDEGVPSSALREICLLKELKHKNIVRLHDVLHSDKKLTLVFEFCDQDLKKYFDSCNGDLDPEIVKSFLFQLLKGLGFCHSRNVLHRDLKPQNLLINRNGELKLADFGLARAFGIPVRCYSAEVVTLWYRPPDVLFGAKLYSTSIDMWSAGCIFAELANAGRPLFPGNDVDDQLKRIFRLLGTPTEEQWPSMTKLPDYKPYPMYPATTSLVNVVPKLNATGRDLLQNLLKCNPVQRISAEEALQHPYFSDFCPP
Chain of CDK5/p35NCK (Q15078 2-307 partner limits assumed): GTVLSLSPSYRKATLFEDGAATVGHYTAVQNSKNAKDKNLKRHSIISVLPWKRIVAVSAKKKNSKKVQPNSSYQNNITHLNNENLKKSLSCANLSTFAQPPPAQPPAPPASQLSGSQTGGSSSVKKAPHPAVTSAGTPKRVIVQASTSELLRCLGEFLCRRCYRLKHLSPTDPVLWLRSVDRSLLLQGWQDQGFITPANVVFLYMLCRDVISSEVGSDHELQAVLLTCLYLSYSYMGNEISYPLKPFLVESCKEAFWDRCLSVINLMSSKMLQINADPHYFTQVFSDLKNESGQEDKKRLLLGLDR

## Cc1c(Br)c(Br)c2c3c1nc(N1CCNCC1)n3CCC2 [SEL120-34A]
[1]
  IRF9 and STAT1 mRNA expression: significantly decreased
[2]; mean, read-out: % remaining activity @1μM CDK5/p35NCK Mean
  remaining activity at 1 µM: 70%
[2]; repeat 1, read-out: % remaining activity @1μM CDK5/p35NCK repeat 1
  remaining activity at 1 µM: 72%
[2]; repeat 2, read-out: % remaining activity @1μM CDK5/p35NCK repeat 2
  remaining activity at 1 µM: 68%
